Results published in US8580955B2, “Purification method and production method for cellobiose” (Matsutani Chemical Industry Co., Ltd., priority 2005, dated 2013).

Experiments:
[1] = Determination of solubility of cellobiose (Karl Fisher moisture of supernatant); assay type: physicochemical; conditions: supernatant of 20% (w/v) solution after crystal formation, 100% minus moisture content
Procedure: There was prepared a 20% (w/v) solution of a commercially available cellobiose (manufactured by Wako Pure Chemical Co., Ltd.), the resulting solution was introduced into a thermostatic chamber maintained at a temperature ranging from 10 to 60° C. to thus form crystals of cellobiose, thereafter the content of water present in the supernatant was determined using a Karl Fisher moisture meter and then the solubility was calculated by subtracting the moisture content from 100%.

[2] = Solubility in water expressed as dissolution time; assay type: physicochemical; conditions: for Dissolution Time: 10 g in 100 mL deionized water at 25 °C with stirring
Procedure: The solubility (the rate of dissolution) of crystalline cellobiose in water may vary depending on the rates of the stereoisomers (the rates of the α- and β-anomers). For instance, when the cellobiose crystals are dissolved in water, the resulting solution is maintained at a high temperature falling within the range in which the solution is not boiled, preferably 80 to 95° C. for a time ranging from 0.5 to 2.0 hours and then the solution is dried while maintaining the same at that temperature, the ratio of the α-anomer is increased to thus give cellobiose powder improved in its solubility in water.
The cellobiose-containing sugar solution having a high content of cellobiose, prepared in Example 4 was concentrated to a solid content concentration of 20%, the sugar solution was then maintained at a temperature of 20° C., 60° C. or 80° C. for one hour and, immediately thereafter, the solution was dried in a spray dryer to thus give cellobiose powder. These powdery cellobiose products were inspected for the solubility in water and the distribution rate of anomers. In this respect, the distribution rate of anomers was determined using Gas Chromatograph GC14 available from Shimadzu Corporation which was equipped with a column: DB1701 (inner diameter: 0.25 mm; length: 30 m) available from J & W Company. More specifically, each sample (1.0 mg) was dissolved in 0.769 mL of pyridine, 0.077 mL of TMSC and 0.154 mL of HMDS were added to the resulting solution, the mixture was maintained at room temperature for one hour and then it was used in the gas chromatography analysis.

O=C[C@H](O)[C@@H](O)[C@H](O[C@@H]1O[C@H](CO)[C@@H](O)[C@H](O)[C@H]1O)[C@H](O)CO [Cellobiose, cellobiose]
Solubility of Cellobiose ([1]; 10 °C): 13.5% | Solubility of Cellobiose ([1]; 20 °C): 14.0% | Solubility of Cellobiose ([1]; 30 °C): 14.7% | Solubility of Cellobiose ([1]; 40 °C): 18.4% | Solubility of Cellobiose ([1]; 50 °C): 22.9% | Solubility of Cellobiose ([1]; 60 °C): 26.3%

O=C[C@H](O)[C@@H](O)[C@H](O[C@@H]1O[C@H](CO)[C@@H](O)[C@H](O)[C@H]1O)[C@H](O)CO [Example 1, cellobiose]
time required for the dissolution ([2]; 10 g sample in 100 mL deionized water at 25 °C with stirring, crystals): 12.5 min

O=C[C@H](O)[C@@H](O)[C@H](O[C@@H]1O[C@H](CO)[C@@H](O)[C@H](O)[C@H]1O)[C@H](O)CO [Example 5, cellobiose]
Dissolution Time ([2]; powder spray-dried from sugar solution kept at 20 °C for one hour): 8.0 min | Dissolution Time ([2]; powder spray-dried from sugar solution kept at 60 °C for one hour): 4.0 min | Dissolution Time ([2]; powder spray-dried from sugar solution kept at 80 °C for one hour): 2.5 min
